In patent EP0745599A2, “1-(3-Heterocyclylphenyl)-s-triazine-2,4,6-oxo or thiotrione herbicidal agents” (American Cyanamid Company, priority 1995, dated 1996):

How the values were obtained:
Assay type in all cases: in vivo
Conditions in all cases: rated four to five weeks after treatment
[1] = tested on: ZEA MAYS L.; assay: Postemergence herbicidal evaluation, ZEAMX (Corn, Field)
Experimental: (§1) In the tests, seedling plants are grown in jiffy flats for about two weeks. The test compounds are dispersed in 50/50 acetone/water mixtures containing 0.5% TWEEN®20, a polyoxyethylene sorbitan monolaurate surfactant of Atlas Chemical Industries, in sufficient quantities to provide the equivalent of about 0.125 kg to 0.500 kg per hectare of active compound when applied to the plants through a spray nozzle operating at 40 psi for a predetermined time. After spraying, the plants are placed on greenhouse benches and are cared for in the usual manner, commensurate with conventional greenhouse practices. From four to five weeks after treatment, the seedling plants are examined and rated according to the rating system set forth below. Where more than one test is involved for a given compound, the data are averaged.
(§2) Results of herbicide evaluation are expressed on a rating scale (0-9). The scale is based upon a visual observation of plant stand, vigor, malformation, size, chlorosis and overall plant appearance as compared with a control.

[2] = tested on: TRITICUM AESTIVUM, CV. APOLLO; assay: Preemergence herbicidal evaluation, TRZAWO (Wheat, Winter, CV. APOLLO)
Procedure, shortened: (§3)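 Compound applied preemergence at about 0.125 to 0.50 kg per hectare as an aqueous acetone spray; response scored visually on a 0-9 scale after four to five weeks.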

[3] = tested on: IPOMOEA SPP.; assay: Preemergence herbicidal evaluation, IPOSS (Morningglory Spp.)
Procedure, shortened: as §3

[4] = tested on: SETARIA VIRIDIS, (L) BEAU; assay: Postemergence herbicidal evaluation, SETVI (Foxtail, Green)
Procedure, shortened: (§4)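 Plants raised roughly two weeks in flats received a foliar spray equivalent to 0.125–0.500 kg/ha, then stayed on greenhouse benches under normal care. Rating (0–9 scale, relative to control) followed four to five weeks on, with data from multiple tests averaged.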

[5] = tested on: GLYCINE MAX(L)MERR. CV. WILLIAMS; assay: Preemergence herbicidal evaluation, GLXMAW (Soybean, Williams)
Procedure, shortened: as §3

[6] = tested on: ECHINOCHLOA CRUS-GALLI, (L) BEAU; assay: Postemergence herbicidal evaluation, ECHCG (Barnyardgrass)
Procedure, shortened: as §4

[7] = tested on: ZEA MAYS L.; assay: Preemergence herbicidal evaluation, ZEAMX (Corn, Field)
Procedure, shortened: as §3

[8] = tested on: AMBROSIA ARTEMISIIFOLIA, L.; assay: Preemergence herbicidal evaluation, AMBEL (Ragweed, Common)
Procedure, shortened: as §3

[9] = tested on: ABUTILON THEOPHRASTI, MEDIC.; assay: Preemergence herbicidal evaluation, ABUTH (Velvetleaf)
Procedure, shortened: as §3

[10] = tested on: CHENOPODIUM ALBUM, L.; assay: Preemergence herbicidal evaluation, CHEAL (Lambsquarters, Common)
Procedure, shortened: as §3

[11] = tested on: ORYZA SATIVA, L. TEBONNET; assay: Preemergence herbicidal evaluation, ORYSAT (Rice, Tebonnet)
Procedure, shortened: as §3

[12] = tested on: CASSIA OBTUSIFOLIA, L.; assay: Preemergence herbicidal evaluation, CASOB (Sicklepod)
Procedure, shortened: as §3

[13] = tested on: ECHINOCHLOA CRUS-GALLI, (L) BEAU; assay: Preemergence herbicidal evaluation, ECHCG (Barnyardgrass)
Procedure, shortened: as §3

[14] = tested on: AMBROSIA ARTEMISIIFOLIA, L.; assay: Postemergence herbicidal evaluation, AMBEL (Ragweed, Common)
Experimental: as §1, §2

[15] = tested on: TRITICUM AESTIVUM, CV. APOLLO; assay: Postemergence herbicidal evaluation, TRZAWO (Wheat, Winter, CV. APOLLO)
Experimental: as §1, §2

[16] = tested on: CHENOPODIUM ALBUM, L.; assay: Postemergence herbicidal evaluation, CHEAL (Lambsquarters, Common)
Experimental: as §1, §2

[17] = tested on: CASSIA OBTUSIFOLIA, L.; assay: Postemergence herbicidal evaluation, CASOB (Sicklepod)
Experimental: as §1, §2

[18] = tested on: ABUTILON THEOPHRASTI, MEDIC.; assay: Postemergence herbicidal evaluation, ABUTH (Velvetleaf)
Experimental: as §1, §2

[19] = tested on: GLYCINE MAX(L)MERR. CV. WILLIAMS; assay: Postemergence herbicidal evaluation, GLXMAW (Soybean, Williams)
Experimental: as §1, §2

[20] = tested on: ORYZA SATIVA, L. TEBONNET; assay: Postemergence herbicidal evaluation, ORYSAT (Rice, Tebonnet)
Experimental: as §1, §2

COC(=O)Cn1c(=O)n(C)c(=O)n(-c2cc(N3C(=O)C4=C(CCCC4)C3=O)c(F)cc2F)c1=O [Compound 10, Methyl 3-[5-(1-cyclohexene-1,2-dicarbox-imido)-2,4-difluorophenyl]-5-methyl-2,4,6-trioxo-s-triazine-1(2H)-acetate]
Herbicide rating (0-9) ZEAMX ([1]; 0.125 kg/ha): 4.0
Herbicide rating (0-9) ZEAMX ([1]; 0.250 kg/ha): 4.0
Herbicide rating (0-9) ZEAMX ([1]; 0.500 kg/ha): 4.0
Herbicide rating (0-9) TRZAWO ([2]; 0.125 kg/ha): 0.0
Herbicide rating (0-9) TRZAWO ([2]; 0.250 kg/ha): 0.0
Herbicide rating (0-9) TRZAWO ([2]; 0.500 kg/ha): 0.0
Herbicide rating (0-9) IPOSS ([3]; 0.125 kg/ha): 0.0
Herbicide rating (0-9) IPOSS ([3]; 0.250 kg/ha): 0.0
Herbicide rating (0-9) IPOSS ([3]; 0.500 kg/ha): 0.0
Herbicide rating (0-9) SETVI ([4]; 0.125 kg/ha): 0.0
Herbicide rating (0-9) SETVI ([4]; 0.250 kg/ha): 0.0
Herbicide rating (0-9) SETVI ([4]; 0.500 kg/ha): 0.0
Herbicide rating (0-9) GLXMAW ([5]; 0.125 kg/ha): 0.0
Herbicide rating (0-9) GLXMAW ([5]; 0.250 kg/ha): 0.0
Herbicide rating (0-9) GLXMAW ([5]; 0.500 kg/ha): 0.0
Herbicide rating (0-9) ECHCG ([6]; 0.125 kg/ha): 0.0
Herbicide rating (0-9) ECHCG ([6]; 0.250 kg/ha): 0.0
Herbicide rating (0-9) ECHCG ([6]; 0.500 kg/ha): 0.0
Herbicide rating (0-9) ZEAMX ([7]; 0.125 kg/ha): 0.0
Herbicide rating (0-9) ZEAMX ([7]; 0.250 kg/ha): 0.0
Herbicide rating (0-9) ZEAMX ([7]; 0.500 kg/ha): 0.0
Herbicide rating (0-9) AMBEL ([8]; 0.125 kg/ha): 0.0
Herbicide rating (0-9) AMBEL ([8]; 0.250 kg/ha): 0.0
Herbicide rating (0-9) AMBEL ([8]; 0.500 kg/ha): 0.0
Herbicide rating (0-9) ABUTH ([9]; 0.250 kg/ha): 0.0
Herbicide rating (0-9) ABUTH ([9]; 0.500 kg/ha): 0.0

CC(C)OC(=O)Cn1c(=O)n(C)c(=O)n(-c2cc(N3C(=O)C4CSCCN4C3=O)c(F)cc2Cl)c1=O (centres unmarked) [Compound 12, Isopropyl 3-{2-chloro-4-fluoro-5-[5,6,8,8a-tetrahydro-1,3-dioxo-1H-imidazo[5,1c][1,4]-thiazin-2(3H)-yl]phenyl}tetrahydro-5-methyl-2,4,6-trioxo-s-triazine-1(2H)-acetate]
Herbicide rating (0-9) CHEAL ([10]; 0.125 kg/ha): 9.0
Herbicide rating (0-9) CHEAL ([10]; 0.250 kg/ha): 9.0
Herbicide rating (0-9) CHEAL ([10]; 0.500 kg/ha): 9.0
Herbicide rating (0-9) TRZAWO ([2]; 0.125 kg/ha): 0.0
Herbicide rating (0-9) TRZAWO ([2]; 0.250 kg/ha): 0.0
Herbicide rating (0-9) TRZAWO ([2]; 0.500 kg/ha): 0.0
Herbicide rating (0-9) ORYSAT ([11]; 0.125 kg/ha): 0.0
Herbicide rating (0-9) ORYSAT ([11]; 0.250 kg/ha): 0.0
Herbicide rating (0-9) ORYSAT ([11]; 0.500 kg/ha): 0.0
Herbicide rating (0-9) CASOB ([12]; 0.125 kg/ha): 9.0
Herbicide rating (0-9) CASOB ([12]; 0.250 kg/ha): 9.0
Herbicide rating (0-9) CASOB ([12]; 0.500 kg/ha): 9.0
Herbicide rating (0-9) ECHCG ([13]; 0.125 kg/ha): 0.0
Herbicide rating (0-9) ECHCG ([13]; 0.250 kg/ha): 0.0
Herbicide rating (0-9) ECHCG ([13]; 0.500 kg/ha): 0.0
Herbicide rating (0-9) AMBEL ([14]; 0.125 kg/ha): 9.0
Herbicide rating (0-9) AMBEL ([14]; 0.250 kg/ha): 9.0
Herbicide rating (0-9) AMBEL ([14]; 0.500 kg/ha): 9.0
Herbicide rating (0-9) TRZAWO ([15]; 0.125 kg/ha): 2.5
Herbicide rating (0-9) TRZAWO ([15]; 0.250 kg/ha): 2.5
Herbicide rating (0-9) TRZAWO ([15]; 0.500 kg/ha): 2.5
Herbicide rating (0-9) CHEAL ([16]; 0.125 kg/ha): 9.0
Herbicide rating (0-9) CHEAL ([16]; 0.250 kg/ha): 9.0
Herbicide rating (0-9) CHEAL ([16]; 0.500 kg/ha): 9.0
Herbicide rating (0-9) CASOB ([17]; 0.125 kg/ha): 9.0
Herbicide rating (0-9) CASOB ([17]; 0.250 kg/ha): 9.0
Herbicide rating (0-9) CASOB ([17]; 0.500 kg/ha): 9.0
Herbicide rating (0-9) ABUTH ([18]; 0.125 kg/ha): 9.0
Herbicide rating (0-9) ABUTH ([18]; 0.250 kg/ha): 9.0
Herbicide rating (0-9) ABUTH ([18]; 0.500 kg/ha): 9.0

C=CCn1c(=O)n(CC=C)c(=O)n(-c2cc(N3C(=O)C4=C(CCCC4)C3=O)c(F)cc2Cl)c1=O [Compound 19, N-[4-Chloro-5-(3,5-diallylhexahydro-2,4,6-trioxo-s-triazin-1-yl)-2-fluorophenyl]-1-cyclohexene-1,2-dicarboximide]
Herbicide rating (0-9) GLXMAW ([19]; 0.125 kg/ha): 1.0
Herbicide rating (0-9) GLXMAW ([19]; 0.250 kg/ha): 1.0
Herbicide rating (0-9) GLXMAW ([19]; 0.500 kg/ha): 1.0
Herbicide rating (0-9) SETVI ([4]; 0.125 kg/ha): 0.0
Herbicide rating (0-9) SETVI ([4]; 0.250 kg/ha): 0.0
Herbicide rating (0-9) SETVI ([4]; 0.500 kg/ha): 0.0
Herbicide rating (0-9) ECHCG ([6]; 0.125 kg/ha): 0.0
Herbicide rating (0-9) ECHCG ([6]; 0.250 kg/ha): 0.0
Herbicide rating (0-9) ECHCG ([6]; 0.500 kg/ha): 0.0
Herbicide rating (0-9) TRZAWO ([15]; 0.125 kg/ha): 2.0
Herbicide rating (0-9) TRZAWO ([15]; 0.250 kg/ha): 2.0
Herbicide rating (0-9) TRZAWO ([15]; 0.500 kg/ha): 2.0
Herbicide rating (0-9) ORYSAT ([20]; 0.125 kg/ha): 2.0
Herbicide rating (0-9) ORYSAT ([20]; 0.250 kg/ha): 2.0
Herbicide rating (0-9) ORYSAT ([20]; 0.500 kg/ha): 2.0
